# Measured values taken from patent US8324245B2, “Quinoline derivative and quinazoline derivative inhibiting self-phosphorylation of hepatocytus proliferator receptor, and medicinal composition containing the same” (Kyowa Hakko Kirin Co., Ltd., priority 2001, dated 2012).
# Molecular target: T1, met (HGF receptor) in human gastric cancer cells MKN45 (Homo sapiens, UniProt P08581)
# T1 construct: endogenous in cells; host or cells: MKN45 human gastric cancer cells
# Experiment: Inhibitory activity against met-autophosphorylation using ELISA method (2), MKN45 cells, HGF-independent
# Format: cell-based
# Procedure, shortened: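 MKN45 cells, 3×10^4 per well in RPMI with 0.1% FCS overnight, were exposed to compound in DMSO for 1 h at 37 °C without HGF. Lysates were captured on anti-phosphotyrosine (PY20) plates, Met detected with anti-Met and peroxidase secondary antibody, absorbance at 450 nm.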
# T1 sequence (P08581 25-1390): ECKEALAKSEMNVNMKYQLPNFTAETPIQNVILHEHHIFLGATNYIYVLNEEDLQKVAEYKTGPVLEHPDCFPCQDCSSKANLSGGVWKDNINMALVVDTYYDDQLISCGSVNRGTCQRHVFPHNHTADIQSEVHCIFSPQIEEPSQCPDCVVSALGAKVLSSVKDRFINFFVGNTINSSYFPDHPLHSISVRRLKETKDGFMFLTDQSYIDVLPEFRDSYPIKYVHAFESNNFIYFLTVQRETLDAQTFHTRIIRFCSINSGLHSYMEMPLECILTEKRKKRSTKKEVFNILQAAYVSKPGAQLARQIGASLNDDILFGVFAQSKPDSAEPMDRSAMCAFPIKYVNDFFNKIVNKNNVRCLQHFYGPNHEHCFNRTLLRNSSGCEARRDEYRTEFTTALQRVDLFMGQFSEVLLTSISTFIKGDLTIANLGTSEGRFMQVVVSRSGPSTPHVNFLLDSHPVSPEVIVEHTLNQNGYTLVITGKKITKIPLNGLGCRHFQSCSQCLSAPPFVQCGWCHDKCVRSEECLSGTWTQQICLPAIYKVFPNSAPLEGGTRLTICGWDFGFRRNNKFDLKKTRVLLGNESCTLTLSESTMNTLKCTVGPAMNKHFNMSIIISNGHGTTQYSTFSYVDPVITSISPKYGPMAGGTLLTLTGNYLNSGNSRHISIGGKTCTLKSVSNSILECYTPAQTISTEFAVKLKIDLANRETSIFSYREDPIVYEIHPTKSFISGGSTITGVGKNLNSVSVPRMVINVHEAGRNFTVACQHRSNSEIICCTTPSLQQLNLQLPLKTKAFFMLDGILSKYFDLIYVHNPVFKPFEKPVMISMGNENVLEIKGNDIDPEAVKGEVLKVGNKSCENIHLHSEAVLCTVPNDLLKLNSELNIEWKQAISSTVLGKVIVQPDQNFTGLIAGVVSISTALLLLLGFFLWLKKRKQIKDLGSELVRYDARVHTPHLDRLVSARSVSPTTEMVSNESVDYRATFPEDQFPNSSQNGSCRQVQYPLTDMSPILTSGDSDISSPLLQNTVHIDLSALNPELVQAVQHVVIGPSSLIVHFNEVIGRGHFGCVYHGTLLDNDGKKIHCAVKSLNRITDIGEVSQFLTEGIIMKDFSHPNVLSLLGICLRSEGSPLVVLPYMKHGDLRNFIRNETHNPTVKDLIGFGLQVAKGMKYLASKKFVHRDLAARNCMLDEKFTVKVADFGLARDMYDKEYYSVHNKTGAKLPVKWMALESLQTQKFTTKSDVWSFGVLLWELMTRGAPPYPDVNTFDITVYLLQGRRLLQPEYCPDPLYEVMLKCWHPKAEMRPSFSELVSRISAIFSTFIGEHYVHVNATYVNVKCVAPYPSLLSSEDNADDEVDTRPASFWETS
row,Structure (SMILES),IC50 [nM]
1,"COc1cc2nccc(Oc3ccc(NC(=O)NC(=O)Cc4cccs4)c(F)c3)c2cc1OC [Example 30, 1-[4-(6,7-dimethoxyquinolin-4-yloxy)-2-fluoro-phenyl]-3-(2-thiophen-2-ylacetyl)urea]",35.1
2,"COc1ccccc1CC(=O)NC(=S)Nc1ccc(Oc2ccnc3cc(OC)c(OC)cc23)c(F)c1 [Example 83, 1-[4-(6,7-dimethoxyquinolin-4-yloxy)-3-fluoro-phenyl]-3-[2-(2-methoxyphenyl)acetyl]thiourea]",39.1
3,"COc1cc2nccc(Oc3ccc(NC(=S)NC(=O)Cc4ccccc4)cc3Cl)c2cc1OC [Example 63, 1-[3-chloro-4-(6,7-dimethoxyquinolin-4-yloxy)-phenyl]-3-phenylacetylthiourea]",24.4
4,"COc1cc2nccc(Oc3ccc(NC(=S)NC(=O)Cc4c(F)cccc4F)cc3F)c2cc1OC [Example 95, 1-[2-(2,6-difluorophenyl)acetyl]-3-[4-(6,7-dimethoxyquinolin-4-yloxy)-3-fluorophenyl]thiourea]",41.3
5,"COc1cc2nccc(Oc3ccc(NC(=O)NC(=O)Cc4ccc(F)cc4)cc3F)c2cc1OC [Example 23, 1-[4-(6,7-dimethoxyquinolin-4-yloxy)-3-fluoro-phenyl]-3-[2-(4-fluorophenyl)acetyl]urea]",26.3
6,"COc1cc2nccc(Oc3ccc(NC(=O)NC(=O)Cc4cccc(F)c4F)c(F)c3)c2cc1OC [Example 138, 1-[2-(2,3-difluorophenyl)acetyl]-3-[4-(6,7-dimethoxyquinolin-4-yloxy)-2-fluorophenyl]urea]",284
7,"COc1cc2nccc(Oc3ccc(NC(=O)NC(=O)CN4CCc5ccccc54)cc3F)c2cc1OC [Example 122, 1-[2-(2,3-dihydro-1H-1-indol-1-yl)acetyl]-3-[4-(6,7-dimethoxyquinolin-4-yloxy)-3-fluorophenyl]urea]",303
8,"COc1cc2nccc(Oc3ccc(NC(=O)NC(=O)Cc4ccc(F)c(F)c4)cc3)c2cc1OC [Example 39, 1-[2-(3,4-difluorophenyl)acetyl]-3-[4-(6,7-dimethoxyquinolin-4-yloxy)phenyl]urea]",114
9,"COc1cc2nccc(Oc3ccc(NC(=S)NC(=O)Cc4ccc(F)cc4F)c(F)c3)c2cc1OC [Example 93, 1-[2-(2,4-difluorophenyl)acetyl]-3-[4-(6,7-dimethoxyquinolin-4-yloxy)-2-fluorophenyl]thiourea]",121
10,"COc1cc2nccc(Oc3ccc(NC(=S)NC(=O)c4cccc(C(F)(F)F)c4)cc3)c2cc1OC [Example 145, 1-[4-(6,7-dimethoxyquinolin-4-yloxy)phenyl]-3-(3-trifluoromethyl-benzoyl)thiourea]",364

# More lines, now with the values ahead:
row,IC50 [nM],Structure (SMILES)
1,23.8,COc1cc2c(Oc3ccc(NC(=S)NC(=O)Cc4cccc(F)c4)cc3F)ccnc2cc1OCCCN1CCOCC1 [Example 289]
2,1170,"COc1cc2nccc(Oc3ccc(NC(=S)NC(=O)CCSC)cc3F)c2cc1OC [Example 147, 1-[4-(6,7-dimethoxyquinolin-4-yloxy)-3-fluorophenyl]-3-(3-methylsulfanylpropionyl)thiourea]"
3,21.4,"COc1cc2c(Oc3ccc(NC(=O)NC(=O)Cc4ccccc4)cc3F)ccnc2cc1OCCCn1ccnc1 [Example 305, 1-{3-Fluoro-4-[7-(3-imidazol-1-yl-propoxy)-6-methoxy-quinolin-4-yloxy]-phenyl}-3-phenylacetyl-urea]"
4,308,"COC(=O)c1ccccc1NC(=O)NC(=O)Nc1ccc(Oc2ccnc3cc(OC)c(OC)cc23)cc1 [Example 245, methyl 2-({({[4-(6,7-dimethoxyquinolin-4-yloxy)anilino]carbonyl}amino)carbonyl}amino)benzoate]"
5,23,"COc1cc2c(Oc3ccc(NC(=O)NC(=O)Cc4ccccc4F)cc3F)ccnc2cc1OCCCN1CCCC1 [Example 294, 1-{3-Fluoro-4-[6-methoxy-7-(3-pyrrolidin-1-yl-propoxy)-quinolin-4-yloxy]-phenyl}-3-[2-(2-fluoro-phenyl)-acetyl]-urea]"
